# Test system: facial skin of humans
# Test: Retinoid irritation test: idebenone pre-treatment then prescription retinoid, clinician grading and TEWL
# Assay type: in vivo
# Protocol: In a test, idebenone was applied to the facial skin of humans. Two different test sites were setup whereby, one site was applied with idebenone twice a day for 2 weeks followed by a 2 week application period of a prescription retinoid (once a day, as prescribed). The remaining site was applied for 2 weeks just the prescription retinoid (once a day, as prescribed). Each test site was evaluated by a trained clinician for irritation and roughness using a 0 (none) to 4 (severe) scale pre and post retinoid treatment. Additionally, transepidermal water loss measurements (TEWL) were also made at the same time as visual evaluations.
# FIG. 1 graphically depicts the results of the test.
# [1] = facial skin, pre vs post 2 week retinoid treatment once a day, idebenone site pre-treated twice a day for 2 weeks
smiles,measurement,setting,value
"COC1=C(OC)C(=O)C(CCCCCCCCCCO)=C(C)C1=O [Idebenone, 6-(10-hydroxydecyl)-2,3-dimethoxy-5-methyl-1,4-benzoquinone]","increase in irritation (0 (none) to 4 (severe) scale, trained clinician)",[1],moderate to minimal increase
same,"increase in roughness (0 (none) to 4 (severe) scale, trained clinician)",[1],moderate to minimal increase
same,increase in transepidermal water loss measurements (TEWL),[1],moderate to minimal increase
same,irritation potential produced by the prescription retinoid,idebenone used as a pre-treatment for 2 weeks,significantly reduced
